In patent US20240316047A1, “INHIBITORS OF RNA HELICASE DHX9 AND USES THEREOF” (ACCENT THERAPEUTICS, INC., priority 2022, published 2024):

Biological target: Human recombinant DHX9 protein (Homo sapiens (Human), UniProt Q08211)
Assay: DHX9 ATPase assay (ADP-Glo)
Assay type: biochemical
Settings: for IC50: read-out: DHX9 Biochemical Inflection Point

Human recombinant DHX9 protein, sequence (Q08211 whole entry): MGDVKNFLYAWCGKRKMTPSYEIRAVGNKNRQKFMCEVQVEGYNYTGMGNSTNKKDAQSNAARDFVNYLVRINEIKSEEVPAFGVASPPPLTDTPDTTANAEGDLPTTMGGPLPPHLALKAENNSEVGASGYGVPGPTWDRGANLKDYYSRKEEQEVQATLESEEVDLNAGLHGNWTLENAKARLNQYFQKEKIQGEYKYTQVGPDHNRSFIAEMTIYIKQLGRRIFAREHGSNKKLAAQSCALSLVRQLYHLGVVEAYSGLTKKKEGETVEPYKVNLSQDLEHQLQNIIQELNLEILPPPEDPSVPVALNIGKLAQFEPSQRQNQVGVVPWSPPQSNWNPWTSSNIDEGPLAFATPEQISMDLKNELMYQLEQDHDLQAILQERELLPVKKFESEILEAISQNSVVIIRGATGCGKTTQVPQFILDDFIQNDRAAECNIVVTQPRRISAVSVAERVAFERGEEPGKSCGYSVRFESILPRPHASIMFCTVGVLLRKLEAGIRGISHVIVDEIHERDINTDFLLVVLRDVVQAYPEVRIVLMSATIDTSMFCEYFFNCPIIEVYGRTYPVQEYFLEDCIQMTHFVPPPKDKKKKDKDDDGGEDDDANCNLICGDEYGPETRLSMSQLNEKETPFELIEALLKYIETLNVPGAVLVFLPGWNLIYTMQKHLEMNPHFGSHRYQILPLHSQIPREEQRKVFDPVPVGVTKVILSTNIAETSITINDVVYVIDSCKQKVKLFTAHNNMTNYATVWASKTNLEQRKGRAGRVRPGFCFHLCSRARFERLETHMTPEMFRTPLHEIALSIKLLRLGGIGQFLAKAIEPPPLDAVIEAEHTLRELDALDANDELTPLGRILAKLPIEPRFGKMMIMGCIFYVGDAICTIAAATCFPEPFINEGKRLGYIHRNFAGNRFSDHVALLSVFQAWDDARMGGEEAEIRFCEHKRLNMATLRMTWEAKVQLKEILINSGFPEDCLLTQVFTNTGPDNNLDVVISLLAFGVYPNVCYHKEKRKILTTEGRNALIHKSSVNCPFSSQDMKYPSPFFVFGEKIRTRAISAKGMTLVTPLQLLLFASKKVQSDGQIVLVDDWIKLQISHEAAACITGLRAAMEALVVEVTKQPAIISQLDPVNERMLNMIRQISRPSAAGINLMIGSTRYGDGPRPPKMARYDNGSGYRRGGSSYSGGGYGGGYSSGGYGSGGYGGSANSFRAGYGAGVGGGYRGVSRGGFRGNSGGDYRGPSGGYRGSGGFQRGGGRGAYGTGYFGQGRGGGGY

SMILES | DHX9 Biochemical Max Inhibition | IC50 [nM]
CC(C)Oc1cnc(-c2csc(C(=O)Nc3cc(Cl)cc(NS(C)(=O)=O)c3)c2)c(F)c1 [Example 458] | 60.2 | –
Cc1sc(C(=O)Nc2cc(Cl)cc(NS(C)(=O)=O)c2)cc1-c1ncc(N2CCC(F)(F)CC2)cc1F [Example 471] | 72.1 | 29.2
CS(=O)(=O)Nc1cc(Cl)cc(NC(=O)c2cc3cccc(F)c3s2)c1 [Example 297] | 57% | 997
CS(=O)(=O)Nc1cc(Cl)cc(NC(=O)c2cnn(-c3ncccc3Oc3cccnc3)c2)c1 [Example 676] | 68.4 | 70
CS(=O)(=O)Nc1cc(Cl)cc(NC(=O)c2cnn(-c3ncc(N4CC5(COC5)C4)cc3OCc3cc(F)cc(F)c3)c2)c1 [Example 258] | 72.9% | 4.7
CS(=O)(=O)Nc1cc(Cl)cc(NC(=O)c2cc(-c3ncccc3CC(=O)N3CCC3)cs2)c1 [Example 382] | 75.9% | –
CS(=O)(=O)Nc1cc(Cl)cc(NC(=O)c2cnn(-c3ccccn3)c2)c1 [Example 37] | 62.6% | 47.9
Cc1cc(N2CC(F)(F)C2)cnc1-n1cc(C(=O)Nc2cc(Cl)cc(NS(C)(=O)=O)c2)cc1C [Example 419] | 78.6 | 18.6
Cc1cc(C(=O)Nc2cc(Cl)cc(NS(C)(=O)=O)c2)cn1-c1ncc(N2CC3(C2)CC(F)(F)C3)cn1 [Example 413] | 64.5 | 13.3
Cc1sc(C(=O)Nc2cc(Cl)cc(NS(C)(=O)=O)c2)cc1-c1ncc(F)cc1-c1ccn(C)c(=O)c1 [Example 605] | 67.5 | 24.6
CC(C)(C)OC(=O)N1CC(n2cc(C(=O)Nc3cc(Cl)cc(NS(C)(=O)=O)c3)cc2-c2ncc(F)cn2)C1 [Example 645] | 70.8 | 366
Cc1cc(C(=O)Nc2cc(Cl)cc(NS(C)(=O)=O)c2)cn1-c1ccccc1 [Example 129, N-(3-chloro-5-(methylsulfonamido)phenyl)-5-methyl-1-phenyl-1H-pyrrole-3-carboxamide] | 66.4% | –
Cc1cccn2cc(C(=O)Nc3cc(Cl)cc(NS(C)(=O)=O)c3)cc12 [Example 329] | 66.5% | 139
CS(=O)(=O)Nc1cc(Br)cc(NC(=O)c2cnn(C3CCCCC3)c2)c1 [Example 48] | 54.1% | 93.1
CSc1cnc(-n2cc(C(=O)Nc3cc(Cl)cc(NS(C)(=O)=O)c3)cc2C)nc1 [Example 658] | 73.1 | 53.9
Cc1cccnc1-n1cc(C(=O)Nc2cc(Cl)cc(NS(C)(=O)=O)c2)cc1C [Example 130] | 70.4% | 39.6
CN(C)C(=O)Cc1cccnc1-c1csc(C(=O)Nc2cc(Cl)cc(NS(C)(=O)=O)c2)c1 [Example 221] | 78.3% | 6.6
Cc1cc(C(=O)Nc2cc(Cl)cc(NS(C)(=O)=O)c2)cn1-c1ccc(N2CC(F)C2)cn1 [Example 395] | 77.1 | 6.6
Cc1cc(C(=O)Nc2cc(Cl)cc(NS(C)(=O)=O)c2)cn1-c1ccc(N2CCN(C(=O)C(C)C)CC2)cn1 [Example 283] | 78% | 29.2
Cc1sc(C(=O)Nc2cc(Cl)cc(NS(C)(=O)=O)c2)cc1-c1ncc(OC(C)(C)C)cn1 [Example 559] | 72.175 | 33.4

SMILES | DHX9 Biochemical Max Inhibition | IC50 [nM]
Cn1cc(C(=O)Nc2cc(Cl)cc(NS(C)(=O)=O)c2)cc1-c1ncccc1OCc1nccs1 [Example 279] | 73.2% | 4
CS(=O)(=O)Nc1cc(Cl)cc(NC(=O)c2cnn(-c3ccc(N4CCn5ccnc5C4)cn3)c2)c1 [Example 192] | 72.6% | 16.5
CCc1sc(C(=O)Nc2cc(Cl)cc(NS(C)(=O)=O)c2)cc1-c1ncc(F)cc1F [Example 588] | 67.7 | 103
Cn1cc(C(=O)Nc2cc(Cl)cc(NS(C)(=O)=O)c2)cc1-c1ccc(OC(C)(C)C)cn1 [Example 555] | 61.9 | 43.6
Cc1cccnc1-c1csc(C(=O)Nc2cc(Br)cc(NS(C)(=N)=O)c2)c1 (centres unmarked) [Example 122] | 67.7% | 28.8
Cc1cccc2cc(C(=O)Nc3cc(Cl)cc(NS(C)(=O)=O)c3)cn12 [Example 304] | 59.1% | 399
Cn1cc(C(=O)Nc2cc(Cl)cc(NS(C)(=O)=O)c2)cc1-c1ccc(N2CC(S(C)(=O)=O)C2)cn1 [Example 519] | 71.2 | 8.1
CS(=O)(=O)Nc1cc(Cl)cc(NC(=O)c2cc3cc(F)ccc3s2)c1 [Example 295] | 63.8% | 307
CS(=O)(=O)Nc1cc(Cl)cc(NC(=O)c2cc(-c3ncc(F)cn3)n(C3CNC3)c2)c1 [Example 652] | 68.1 | 343
Cc1cncc2cc(C(=O)Nc3cc(Cl)cc(NS(C)(=O)=O)c3)sc12 [Example 290] | 59.7% | 5590
Cc1cc(C(=O)Nc2cc(Cl)cc(NS(C)(=O)=O)c2)cn1-c1ccc(N2CCC3(CC3)C2)cn1 [Example 522] | 71.8 | 40.8
Cc1cccnc1-c1ccc(C(=O)Nc2cc(Cl)cc(NS(C)(=O)=O)c2)s1 [Example 386] | 59.2% | 420
CCS(=O)(=O)Nc1cc(Cl)cc(NC(=O)c2cc(C)n(-c3ncc(F)cc3Cl)c2)c1 [Example 446] | 64.1 | 115
CS(=O)(=O)Nc1cc(Cl)cc(NC(=O)c2cc(C(=O)N3CCCCC3)n(-c3ccccn3)c2)c1 [Example 644] | 71.2 | 95
CS(=O)(=O)Nc1cc(Cl)cc(NC(=O)c2cnn(-c3ccc(N4CCCC4=O)cn3)c2)c1 [Example 90] | 61.5% | 24
CS(=O)(=O)Nc1cc(Br)cc(NC(=O)c2cc(Cc3ccc[nH]3)cs2)c1 [Example 104, 4-((1H-pyrrol-2-yl)methyl)-N-(3-bromo-5-(methylsulfonamido)phenyl)-thiophene-2-carboxamide] | 68% | 61
Cc1sc(C(=O)Nc2cc(Cl)cc(NS(C)(=O)=O)c2)cc1-c1ncc(N2CC3(C2)CC(F)(F)C3)cc1F [Example 511] | 89.8 | 51.1
CN1CCN(c2cnc(-n3cc(C(=O)Nc4cc(Cl)cc(NS(C)(=O)=O)c4)cn3)c(OCc3cccnc3)c2)CC1=O [Example 193] | 65.8% | 11.1
COC1CN(c2ccc(-c3cc(C(=O)Nc4cc(Cl)cc(NS(C)(=O)=O)c4)cn3C)nc2)C1 [Example 465] | 85.3 | 6.8
Cn1cc(C(=O)Nc2cc(Cl)cc(NS(C)(=O)=O)c2)cc1-c1ncc(N2CC(C(F)(F)F)C2)cc1F [Example 524, N-(3-chloro-5-methanesulfonamidophenyl)-5-{3-fluoro-5-[3-(trifluoromethyl)azetidin-1-yl]pyridin-2-yl}-1-methyl-1H-pyrrole-3-carboxamide] | 62.65 | 32.9
